Patent US9938322B2, “β-hairpin peptidomimetics” (priority 2013, dated 2018)
*1 amine or outer side, *2 acyl side, *3 side chain or, on linkers, in order; H or OH if unused. Where a SMILES comes first, the peptide text is derived from it. [ ]: non-standard residue; d: D form. Ala(thiazol-2-yl) = N[C@@H](Cc1nccs1)C(=O)O; Oic = O=C(O)[C@@H]1C[C@@H]2CCCC[C@@H]2N1; X2 = O=C([C@H](CCNCc1ccccn1)N[*:1])[*:2]; Phe(4-F) = N[C@@H](Cc1ccc(F)cc1)C(=O)O; Pro(3S-OH) = O=C(O)[C@H]1NCC[C@@H]1O; X1 = CC(C)NC[C@H](N[*:1])C(=O)[*:2]; Orn(iPr) = CC(C)NCCC[C@H](N)C(=O)O; Cha = N[C@@H](CC1CCCCC1)C(=O)O; Chg = N[C@H](C(=O)O)C1CCCCC1; Tle = CC(C)(C)[C@H](N)C(=O)O; dDab = NCC[C@@H](N)C(=O)O; hSer = N[C@@H](CCO)C(=O)O; Orn = NCCC[C@H](N)C(=O)O; Api = NC1(C(=O)O)CCNCC1; Dab = NCC[C@H](N)C(=O)O; Nva = CCC[C@H](N)C(=O)O; Dap = NC[C@H](N)C(=O)O

What follows are molecules tested on human red blood cells (hRBC) (assay: Hemolysis of human red blood cells). Conditions: red cells of human, 1 h, 100.
Format: cell-based
Method: Lyophilized peptides were weighed on a Microbalance (Mettler MT5) and dissolved in sterile water to a final concentration of 1 mg/ml. Stock solutions were kept at +4° C., light protected.
The peptides were tested for their hemolytic activity against human red blood cells (hRBC). Fresh hRBC were washed three times with phosphate buffered saline (PBS) and centrifuged for 10 min at 2000×g. Compounds (100 μg/ml) were incubated with 20% hRBC (v/v) for 1 h at 37° C. and shaking at 300 rpm. The final erythrocyte concentration was approximately 0.9×10^9 cells/ml. A value of 0% and 100% cell lyses, respectively, was determined by incubation of hRBC in the presence of PBS containing 0.001% acetic acid and 2.5% Triton X-100 in H2O, respectively. The samples were centrifuged, the supernatants were 8-fold diluted in PBS buffer and the optical densities (OD) were measured at 540 nm. The 100% lyses value (OD540H2O) gave an OD540 of approximately 0.5-1.0.
Percent hemolysis was calculated as follows: (OD540peptide/OD540H2O)×100%.
With `C[C@@H]1NC(=O)[C@H](C(C)(C)C)NC(=O)[C@H](CCN)NC(=O)[C@H](Cc2c[nH]c3ccccc23)NC(=O)[C@H](CCN)NC(=O)[C@H](CCN)NC(=O)[C@H](CCCN)NC(=O)[C@H](CCN)NC(=O)[C@H](CC2CCCCC2)NC(=O)[C@H](CO)NC(=O)[C@H](Cc2c[nH]c3ccccc23)NC(=O)[C@@H]2CCCN2C(=O)[C@H]2CCCN2C(=O)[C@H](CO)NC1=O` [Ex. 1] (cyclo(WS[Cha][Dab][Orn][Dab][Dab]W[Dab][Tle]AS[dP]P)) the “Hemolysis at 100 μg/ml” value was 1%. `COC[C@@H]1NC(=O)[C@H](C(C)(C)C)NC(=O)[C@H](CCN)NC(=O)[C@H](Cc2c[nH]c3ccccc23)NC(=O)[C@H](CCN)NC(=O)[C@H](CCN)NC(=O)[C@H](CCCN)NC(=O)[C@H](CCN)NC(=O)[C@H](CC2CCCCC2)NC(=O)[C@H](C)NC(=O)[C@H](Cc2c[nH]c3ccccc23)NC(=O)[C@@H]2CCCN2C(=O)[C@H]2CCCN2C(=O)[C@H](CO)NC1=O` [Ex. 5] (cyclo(WA[Cha][Dab][Orn][Dab][Dab]W[Dab][Tle]S(Me)S[dP]P)) was tested, and the “Hemolysis at 100 μg/ml” value was 0.5%. For `COC[C@@H]1NC(=O)[C@H](C(C)(C)C)NC(=O)[C@H](CCN)NC(=O)[C@H](Cc2c[nH]c3ccccc23)NC(=O)[C@H](CCN)NC(=O)[C@@H](CCN)NC(=O)[C@H](CCCN)NC(=O)[C@H](CCN)NC(=O)[C@H](CC2CCCCC2)NC(=O)[C@H](CN)NC(=O)[C@H](Cc2c[nH]c3ccccc23)NC(=O)[C@@H]2CCCN2C(=O)[C@H]2CCCN2C(=O)[C@H](CO)NC1=O` [Ex. 6] (cyclo(W[Dap][Cha][Dab][Orn][dDab][Dab]W[Dab][Tle]S(Me)S[dP]P)), the “Hemolysis at 100 μg/ml” value was 3%. In the case of `C[C@@H]1NC(=O)[C@H](C(C)(C)C)NC(=O)[C@H](CCN)NC(=O)[C@H](Cc2c[nH]c3ccccc23)NC(=O)[C@H](CCN)NC(=O)[C@@H](CCN)NC(=O)[C@H](CCCN)NC(=O)[C@H](CCN)NC(=O)[C@H](CC2CCCCC2)NC(=O)[C@H](CN)NC(=O)[C@H](Cc2c[nH]c3ccccc23)NC(=O)[C@@H]2CCCN2C(=O)[C@H]2CCCN2C(=O)[C@H](CO)NC1=O` [Ex. 10] (cyclo(W[Dap][Cha][Dab][Orn][dDab][Dab]W[Dab][Tle]AS[dP]P)), the “Hemolysis at 100 μg/ml” value is reported as 3.5%. `C[C@@H]1NC(=O)[C@H](C(C)(C)C)NC(=O)[C@H](CCN)NC(=O)[C@H](Cc2c[nH]c3ccccc23)NC(=O)[C@H](CCN)NC(=O)[C@@H](CCN)NC(=O)[C@H](CCCN)NC(=O)[C@H](CCNCc2ccccn2)NC(=O)[C@H](CC2CCCCC2)NC(=O)[C@H](CN)NC(=O)[C@H](Cc2c[nH]c3ccccc23)NC(=O)[C@@H]2CCCN2C(=O)[C@H]2CCCN2C(=O)[C@H](CO)NC1=O` [Ex. 11] (cyclo(W[Dap][Cha][X2][Orn][dDab][Dab]W[Dab][Tle]AS[dP]P)) was tested, and the “Hemolysis at 100 μg/ml” value was 0%. With `COC[C@@H]1NC(=O)[C@H](C(C)(C)C)NC(=O)[C@H](CCN)NC(=O)[C@H](Cc2c[nH]c3ccccc23)NC(=O)[C@H](CCN)NC(=O)[C@@H](CCN)NC(=O)[C@H](CCCN)NC(=O)[C@H](CCN)NC(=O)[C@H](CC2CCCCC2)NC(=O)[C@H](C)NC(=O)[C@H](Cc2c[nH]c3ccccc23)NC(=O)[C@@H]2C[C@@H]3CCCC[C@@H]3N2C(=O)[C@H]2CCCN2C(=O)[C@H](CO)NC1=O` [Ex. 54, cyclo(-Trp-Ala-Cha-Dab-Orn-^DDab-Dab-Trp-Dab-tBuGly-Ser(Me)-Ser-^DPro-Oic-)] (cyclo(A[Cha][Dab][Orn][dDab][Dab]W[Dab][Tle]S(Me)S[dP][Oic]W)) the “Hemolysis at 100 μg/ml” value was 3%. For `CC(C)C[C@@H]1NC(=O)[C@@H]2[C@@H](O)CCN2C(=O)[C@H]2CCCN2C(=O)[C@H](CO)NC(=O)[C@H](C)NC(=O)[C@H](Cc2ccc(O)cc2)NC(=O)[C@H](CCN)NC(=O)[C@H](Cc2c[nH]c3ccccc23)NC(=O)[C@H](CCN)NC(=O)[C@@H](CCN)NC(=O)[C@H](CCCN)NC(=O)[C@H](CCN)NC(=O)[C@H](Cc2ccc(O)cc2)NC(=O)[C@H](CO)NC1=O` [Ex. 55] (cyclo(LSY[Dab][Orn][dDab][Dab]W[Dab]YAS[dP][Pro(3S-OH)])), the “Hemolysis at 100 μg/ml” value was 1%. With `C[C@@H]1NC(=O)[C@H](C(C)(C)C)NC(=O)[C@H](CCN)NC(=O)[C@H](Cc2c[nH]c3ccccc23)NC(=O)[C@H](CCN)NC(=O)C2(CCNCC2)NC(=O)[C@H](CCCN)NC(=O)[C@H](CCN)NC(=O)[C@H](CC2CCCCC2)NC(=O)[C@H](CN)NC(=O)[C@H](Cc2c[nH]c3ccccc23)NC(=O)[C@@H]2CCCN2C(=O)[C@H]2CCCN2C(=O)[C@H](CO)NC1=O` [Ex. 62] (cyclo(W[Dap][Cha][Dab][Orn][Api][Dab]W[Dab][Tle]AS[dP]P)) the “Hemolysis at 100 μg/ml” value was 1%. In the case of `CC(C)C[C@@H]1NC(=O)[C@@H]2CCCN2C(=O)[C@H]2CCCN2C(=O)[C@H](CO)NC(=O)[C@H](C)NC(=O)[C@H](C(C)(C)C)NC(=O)[C@H](CCN)NC(=O)[C@H](Cc2c[nH]c3ccccc23)NC(=O)[C@H](CN)NC(=O)[C@@H](CCN)NC(=O)[C@H](CCCN)NC(=O)[C@H](CCN)NC(=O)[C@H](Cc2ccc(O)cc2)NC(=O)[C@H](CO)NC1=O` [Ex. 103] (cyclo(LSY[Dab][Orn][dDab][Dap]W[Dab][Tle]AS[dP]P)), the “Hemolysis at 100 μg/ml” value is reported as 1%. With `CCC[C@@H]1NC(=O)[C@@H]2CCCN2C(=O)[C@H]2CCCN2C(=O)[C@H](CO)NC(=O)[C@H](C)NC(=O)[C@H](C(C)(C)C)NC(=O)[C@H](CCN)NC(=O)[C@H](Cc2c[nH]c3ccccc23)NC(=O)[C@H](CCN)NC(=O)[C@@H](CCN)NC(=O)[C@H](CCCN)NC(=O)[C@H](CCN)NC(=O)[C@H](Cc2ccc(F)cc2)NC(=O)[C@H](CO)NC1=O` [Ex. 104] (cyclo([Nva]S[Phe(4-F)][Dab][Orn][dDab][Dab]W[Dab][Tle]AS[dP]P)) the “Hemolysis at 100 μg/ml” value was 0.5%. In the case of `COC[C@@H]1NC(=O)[C@H](Cc2c[nH]c3ccccc23)NC(=O)[C@@H]2CCCN2C(=O)[C@H]2CCCN2C(=O)[C@H](CO)NC(=O)[C@H](C)NC(=O)[C@H](C(C)(C)C)NC(=O)[C@H](CCN)NC(=O)[C@H](Cc2c[nH]c3ccccc23)NC(=O)[C@H](CCN)NC(=O)[C@@H](CCN)NC(=O)[C@H](CCCN)NC(=O)[C@H](CCN)NC(=O)[C@H](CC2CCCCC2)NC1=O` [compound 2] (cyclo(WS(Me)[Cha][Dab][Orn][dDab][Dab]W[Dab][Tle]AS[dP]P)), the “Hemolysis at 100 μg/ml” value is reported as 1.7%. `C[C@@H]1NC(=O)[C@H](Cc2c[nH]c3ccccc23)NC(=O)[C@@H]2CCCN2C(=O)[C@H]2CCCN2C(=O)[C@H](CO)NC(=O)[C@H](C)NC(=O)[C@H](C(C)(C)C)NC(=O)[C@H](CCN)NC(=O)[C@H](Cc2c[nH]c3ccccc23)NC(=O)[C@H](CCN)NC(=O)[C@@H](CCN)NC(=O)[C@H](CCCN)NC(=O)[C@H](CCN)NC(=O)[C@H](C2CCCCC2)NC1=O` [compound 3] (cyclo(WA[Chg][Dab][Orn][dDab][Dab]W[Dab][Tle]AS[dP]P)) was tested, and the “Hemolysis at 100 μg/ml” value was 2.5%. `C[C@@H]1NC(=O)[C@H](Cc2c[nH]c3ccccc23)NC(=O)[C@@H]2CCCN2C(=O)[C@H]2CCCN2C(=O)[C@H](CO)NC(=O)[C@H](C)NC(=O)[C@H](C(C)(C)C)NC(=O)[C@H](CCN)NC(=O)[C@H](Cc2c[nH]c3ccccc23)NC(=O)[C@H](CCN)NC(=O)[C@@H](CCN)NC(=O)[C@H](CCCN)NC(=O)[C@H](CCN)NC(=O)[C@H](Cc2ccc(O)cc2)NC1=O` [compound 4] (cyclo(WAY[Dab][Orn][dDab][Dab]W[Dab][Tle]AS[dP]P)) was tested, and the “Hemolysis at 100 μg/ml” value was 1%. In the case of `C[C@@H]1NC(=O)[C@H](Cc2c[nH]c3ccccc23)NC(=O)[C@@H]2CCCN2C(=O)[C@H]2CCCN2C(=O)[C@H](CO)NC(=O)[C@H](Cc2nccs2)NC(=O)[C@H](C(C)(C)C)NC(=O)[C@H](CCN)NC(=O)[C@H](Cc2c[nH]c3ccccc23)NC(=O)[C@H](CCN)NC(=O)[C@@H](CCN)NC(=O)[C@H](CCCN)NC(=O)[C@H](CCN)NC(=O)[C@H](CC2CCCCC2)NC1=O` [compound 7] (cyclo(WA[Cha][Dab][Orn][dDab][Dab]W[Dab][Tle][Ala(thiazol-2-yl)]S[dP]P)), the “Hemolysis at 100 μg/ml” value is reported as 8%. `CC(C)NCCC[C@@H]1NC(=O)[C@H](CCN)NC(=O)[C@H](CC2CCCCC2)NC(=O)[C@H](CNC(C)C)NC(=O)[C@H](Cc2c[nH]c3ccccc23)NC(=O)[C@@H]2CCCN2C(=O)[C@H]2CCCN2C(=O)[C@H](CO)NC(=O)[C@H](CO)NC(=O)[C@H](C(C)(C)C)NC(=O)[C@H](CCN)NC(=O)[C@H](Cc2c[nH]c3ccccc23)NC(=O)[C@H](CCN)NC(=O)[C@@H](CCN)NC1=O` [compound 8] (cyclo(W[X1][Cha][Dab][Orn(iPr)][dDab][Dab]W[Dab][Tle]SS[dP]P)) was tested, and the “Hemolysis at 100 μg/ml” value was 7%. With `CC(C)NC[C@@H]1NC(=O)[C@H](Cc2c[nH]c3ccccc23)NC(=O)[C@@H]2CCCN2C(=O)[C@H]2CCCN2C(=O)[C@H](CO)NC(=O)[C@H](C)NC(=O)[C@H](C(C)(C)C)NC(=O)[C@H](CCO)NC(=O)[C@H](Cc2c[nH]c3ccccc23)NC(=O)[C@H](CCN)NC(=O)[C@@H](CCN)NC(=O)[C@H](CCCN)NC(=O)[C@H](CCN)NC(=O)[C@H](CC2CCCCC2)NC1=O` [compound 9] (cyclo(W[X1][Cha][Dab][Orn][dDab][Dab]W[hSer][Tle]AS[dP]P)) the “Hemolysis at 100 μg/ml” value was 2%. With `C[C@@H]1NC(=O)[C@H](C(C)(C)C)NC(=O)[C@H](CCN)NC(=O)[C@H](Cc2c[nH]c3ccccc23)NC(=O)[C@H](CCN)NC(=O)[C@@H](CCN)NC(=O)[C@H](CCCN)NC(=O)[C@H](CCN)NC(=O)[C@H](CC2CCCCC2)NC(=O)[C@H](CCNCc2ccccn2)NC(=O)[C@H](Cc2c[nH]c3ccccc23)NC(=O)[C@@H]2CCCN2C(=O)[C@H]2CCCN2C(=O)[C@H](CO)NC1=O` [compound 12] (cyclo(W[X2][Cha][Dab][Orn][dDab][Dab]W[Dab][Tle]AS[dP]P)) the “Hemolysis at 100 μg/ml” value was 0%.
